Results taken from patent US6251900A, “Heterocyclic compounds and antitumor agent containing the same as active ingredient” (Zenyaku Kogyo Kabushiki Kaisha, priority 1997, dated 2001).
Structures can show the parent of a compound that is named as a salt.

Test system: M5076 mouse reticulum cell sarcoma cells
Experiment: Tumor growth inhibition, M5076 mouse reticulum cell sarcoma transplanted subcutaneously in BDF1 mice (Test 2)
Assay type: in vivo
Conditions: 70 mg/kg, abdominally administered for 9 days, tumor weight on day 21
Protocol: The treated group to which the test sample was administered consisted of seven mice while the control group consisted of ten mice. Six weeks old male mice (BDF1, 25±2.5 g) were employed as host animals.
M5076 mouse reticulum cell sarcoma cells routinely cultured in abdominal of C57BL/6 male mice were diluted with cold Hanks solution and 1.0×10^6 cells of them were transplanted subcutaneously into left breast of each mouse. The samples prepared by suspending test compounds in 1% hydroxypropyl cellulose (HPC) were abdominally administered for 9 days after the day after the transplantation. After 21 days passed from the transplantation of the tumor, the mice were killed and the tumors were extracted out to measure the tumor weights of the respective groups.
Effect of sample was calculated as tumor growth inhibition by the following formula:
Tumor Growth Inhibition (%)=(1-T/C)×100
T: tumor weight of group with sample administered
C: tumor weight of control group

Row | Compound | Tumor Growth Inhibition (%)
1 | c1cn(-c2nc(N3CCOCC3)nc(N3CCOCC3)n2)cn1 [compound A, 2-(imidazol-1-yl)-4,6-dimorpholino-1,3,5-triazine, reference compound] | 5.0

Same assay, conditions: 100 mg/kg, abdominally administered for 9 days, tumor weight on day 21

Row | Compound | Tumor Growth Inhibition (%)
2 | CN(C)c1nc(N(C)C)nc(N(C)C)n1 [compound B, hexamethylmelamine, reference compound] | 38.8

Same assay, conditions: 200 mg/kg, abdominally administered for 9 days, tumor weight on day 21

Row | Compound | Tumor Growth Inhibition (%)
3 | C[C@@H]1CN(c2nc(N3CCOCC3)nc(-n3cnc4ccccc43)n2)C[C@H](C)O1 [compound 1, 2-(benzimidazol-1-yl)-4-(cis-2,6-dimethyl-morpholino)-6-morpholino-1,3,5-triazine] | 94.7
4 | CC1(C)CN(c2nc(N3CCOCC3)nc(-n3cnc4ccccc43)n2)CCO1 [compound 11, 2-(benzimidazol-1-yl)-4-(2,2-dimethylmorpholino)-6-morpholino-1,3,5-triazine] | 88.3
5 | C[C@@H]1CN(c2cc(N3CCOCC3)nc(-n3cnc4ccccc43)n2)C[C@H](C)O1 [compound 19, 2-(benzimidazol-1-yl)-4-(cis-2,6-dimethyl-morpholino)-6-morpholinopyrimidine] | 98.1

Test system: MCF-7 cells
Experiment: Growth inhibition of MCF-7 human breast cancer cells, 72 h culture (Test 1)
Assay type: cell-based
Conditions: MCF7, 37° C., read-out: 50% Growth inhibition concentrations (GI50)
Protocol: Used in the test were MCF-7 cells which were established from human breast cancer and were cultured routinely under the conditions of 37° C. and 5% CO2, in RPMI 1640 medium supplemented with 10% fetal calf serum, HEPES buffer solution (25 mM) and kanamycin (0.1 mg/ml). Single cell suspension was prepared by adding trypsin/EDTA to the medium so as to be adjusted to 4.0×10^4 cells/ml. Test compounds were dissolved or suspended in DMSO or RPMI 1640 medium at a concentration of 1.0×10^-4 -1.0×10^-9 M.
The cell suspension and the sample solution or suspension were filled in a 96-wells microplate at a rate of 0.1 ml of the former and 0.1 ml of the latter per well and cultured at 37° C. for 72 hours in 5% CO2.
50% Growth inhibition concentrations (GI50 μM) were calculated from growth inhibitions at various sample concentrations.

Row | Compound | GI50 [µM]
6 | C[C@@H]1OCCN(c2nc(N3CCOCC3)nc(-n3cnc4ccccc43)n2)[C@@H]1C (relative stereo) [compound 7, 2-(benzimidazol-1-yl)-4-(cis-2,3-dimethylmorpholino)-6-morpholino-1,3,5-triazine] | 1
7 | C[C@@H]1CN(c2nc(N3CCO[C@@H](C)[C@H]3C)nc(-n3cnc4ccccc43)n2)C[C@H](C)O1 (relative stereo) [compound 8, 2-(benzimidazol-1-yl)-4-(cis-2,3-dimethylmorpholino)-6-(cis-2,6-dimethylmorpholino)-1,3,5-triazine] | 3.9
8 | C[C@H]1CN(c2cc(N3CCOCC3)nc(-n3cnc4ccccc43)n2)C[C@H](C)O1 (relative stereo) [compound 20, 2-(benzimidazol-1-yl)-4-(trans-2,6-dimethylmorpholino)-6-morpholinopyrimidine] | 2.8
9 | c1ccc2c(c1)ncn2-c1nc(N2CCOCC2)nc(N2CCOCC2)n1 [compound 2, 2-(benzimidazol-1-yl)-4,6-dimorpholino-1,3,5-triazine] | 3.3
10 | Cc1nc2ccccc2n1-c1nc(N2CCOCC2)nc(N2CCOCC2)n1 [compound 3, 2-(2-methylbenzimidazol-1-yl)-4,6-dimorpholino-1,3,5-triazine] | 3.7
11 | N#Cc1nc(N2CCOCC2)nc(-n2cnc3ccccc32)n1 [compound 4, 2-(benzimidazol-1-yl)-4-cyano-6-morpholino-1,3,5-triazine] | 3.8
12 | CC1(C)CN(c2nc(N3CCOCC3)nc(-n3cnc4ccccc43)n2)CCO1 [compound 11, 2-(benzimidazol-1-yl)-4-(2,2-dimethylmorpholino)-6-morpholino-1,3,5-triazine] | 1.7
13 | CC(C)(C)OC(=O)NCC1CN(c2nc(N3CCOCC3)nc(-n3cnc4ccccc43)n2)CCO1 (centres unmarked) [compound 18, 2-(benzimidazol-1-yl)-4-[2-(tert-butoxycarbonylamino-methyl)morpholino]-6-morpholino-1,3,5-triazine] | 6.3
14 | C[C@@H]1CN(c2cc(N3CCOCC3)nc(-n3cnc4ccccc43)n2)C[C@H](C)O1 [compound 19, 2-(benzimidazol-1-yl)-4-(cis-2,6-dimethyl-morpholino)-6-morpholinopyrimidine] | 3.2
15 | CC(C)(C)OC(=O)NCC1CN(c2cc(N3CCOCC3)nc(-n3cnc4ccccc43)n2)CCO1 (centres unmarked) [compound 25, 2-(benzimidazol-1-yl)-4-[2-(tert-butoxycarbonylamino-methyl)morpholino]-6-morpholinopyrimidine] | 4
16 | FCC1CN(c2nc(N3CCOCC3)nc(-n3cnc4ccccc43)n2)CCO1 (centres unmarked) [compound 32, 2-(benzimidazol-1-yl)-4-(2-fluoromethylmorpholino)-6-morpholino-1,3,5-triazine] | 3.9
17 | OCC1CN(c2nc(N3CCOCC3)nc(-n3cnc4ccccc43)n2)CCO1 (centres unmarked) [compound 34, 2-(benzimidazol-1-yl)-4-(2-hydroxymethylmorpholino)-6-morpholino-1,3,5-triazine] | 5.8
18 | CC(=O)OC1CCN(c2nc(N3CCOCC3)nc(-n3cnc4ccccc43)n2)CC1 [compound 38, 2-(4-acetoxypiperidino)-4-(benzimidazol-1-yl)-6-morpholino-1,3,5-triazine] | 6.5
19 | OCCN(CCO)c1nc(N2CCOCC2)nc(-n2cnc3ccccc32)n1 [compound 42, 2-(benzimidazol-1-yl)-4-[N,N-di(2-hydroxyethyl)amino]-6-morpholino-1,3,5-triazine] | 4.6
20 | c1ccc2c(c1)ncn2-c1cc(N2CCOCC2)nc(N2CCOCC2)n1 [compound 45, 4-(benzimidazol-1-yl)-2,6-dimorpholinopyrimidine] | 4.6
21 | c1ccc2c(c1)ncn2-c1cc(-n2cnc3ccccc32)nc(N2CCOCC2)n1 [compound 46, 4,6-di(benzimidazol-1-yl)-2-morpholinopyrimidine] | 4.3
22 | c1ccc2c(c1)ncn2-c1nc(N2CCOCC2)nc(N2CCC3(CC2)OCCO3)n1 [compound 48, 2-(benzimidazol-1-yl)-4-[1,4-dioxa-8-azaspiro[4,5]decan-8-yl)-6-morpholino-1,3,5-triazine] | 5
23 | CCN(CCN1CCOCC1)c1nc(N2CCOCC2)nc(-n2cnc3ccccc32)n1 [compound 49, 2-(benzimidazol-1-yl)-4-(N-ethyl-N-2-morpholinoethyl)amino-6-morpholino-1,3,5-triazine] | 5
24 | c1cn(-c2nc(N3CCOCC3)nc(N3CCOCC3)n2)cn1 [compound A, 2-(imidazol-1-yl)-4,6-dimorpholino-1,3,5-triazine, reference compound] | 20
25 | CN(C)c1nc(N(C)C)nc(N(C)C)n1 [compound B, hexamethylmelamine, reference compound] | > 100

The remaining lines, values ahead:

Row | GI50 [µM] | Compound
26 | 2.3 | C[C@H]1CN(c2nc(N3CCOCC3)nc(-n3cnc4ccccc43)n2)C[C@H](C)O1 (relative stereo) [compound 14, 2-(benzimidazol-1-yl)-4-(trans-2,6-dimethylmorpholino)-6-morpholino-1,3,5-triazine]
27 | 1.1 | C[C@@H]1OCCN(c2cc(N3CCOCC3)nc(-n3cnc4ccccc43)n2)[C@@H]1C (relative stereo) [compound 21, 2-(benzimidazol-1-yl)-4-(cis-2,3-dimethylmorpholino)-6-morpholinopyrimidine]
28 | 2.9 | C[C@@H]1CN(c2nc(N3CCOCC3)nc(-n3cnc4ccccc43)n2)C[C@H](C)O1 [compound 1, 2-(benzimidazol-1-yl)-4-(cis-2,6-dimethyl-morpholino)-6-morpholino-1,3,5-triazine]
29 | 7.2 | FC(F)(F)C1CN(c2nc(N3CCOCC3)nc(-n3cnc4ccccc43)n2)CCO1 (centres unmarked) [compound 6, 2-(benzimidazol-1-yl)-4-morpholino-6-(2-trifluoro-methylmorpholino)-1,3,5-triazine]
30 | 3.9 | CCC1CN(c2nc(N3CCOCC3)nc(-n3cnc4ccccc43)n2)CCO1 (centres unmarked) [compound 12, 2-(benzimidazol-1-yl)-4-(2-ethylmorpholino)-6-morpholino-1,3,5-triazine]
31 | 4.8 | CC1CN(c2nc(N3CCOCC3)nc(-n3cnc4ccccc43)n2)CCO1 (centres unmarked) [compound 16, 2-(benzimidazol-1-yl)-4-(2-methylmorpholino)-6-morpholino-1,3,5-triazine]
32 | 3.9 | c1ccc2c(c1)ncn2-c1nc(N2CCOCC2)cc(N2CCSCC2)n1 [compound 23, 2-(benzimidazol-1-yl)-4-morpholino-6-thiomorpholino-pyrimidine]
33 | 3.7 | Cc1cc2ncn(-c3nc(N4CCOCC4)nc(N4CCOCC4)n3)c2cc1C [compound 30, 2-(5,6-dimethylbenzimidazol-1-yl)-4,6-dimorpholino-1,3,5-triazine]
34 | 6.8 | CN(Cc1ccccc1)CC1CN(c2nc(N3CCOCC3)nc(-n3cnc4ccccc43)n2)CCO1 (centres unmarked) [compound 31, 2-(benzimidazol-1-yl)-4-[2-(N-benzyl-N-methylamino-methyl)morpholino]-6-morpholino-1,3,5-triazine]
35 | 3.2 | Cc1nc2ccccc2n1-c1nc(N2CCOCC2)nc(N2C[C@@H](C)O[C@@H](C)C2)n1 [compound 33, 4-(cis-2,6-dimethylmorpholino)-2-(2-methylbenzimidazol-1-yl)-6-morpholino-1,3,5-triazine]
36 | 3.9 | OC1CCCN(c2nc(N3CCOCC3)nc(-n3cnc4ccccc43)n2)C1 (centres unmarked) [compound 36, 2-(benzimidazol-1-yl)-4-(3-hydroxypiperidino)-6-morpholino-1,3,5-triazine]
37 | 4.3 | c1ccc2c(c1)ncn2-c1nc(N2CCOCC2)cc(N2CCOCC2)n1 [compound 43, 2-(benzimidazol-1-yl)-4,6-dimorpholinopyrimidine]
38 | 3.1 | c1ccc2c(c1)ncn2-c1cc(N2CCOCC2)nc(-n2cnc3ccccc32)n1 [compound 44, 2,4-di(benzimidazol-1-yl)-6-morpholinopyrimidine]
39 | 3.6 | Brc1c(N2CCOCC2)nc(-n2cnc3ccccc32)nc1N1CCOCC1 [compound 47, 2-(benzimidazol-1-yl)-5-bromo-4,6-dimorpholinopyrimidine]
40 | 5.2 | NCCCCC1CCCN(c2nc(N3CCOCC3)nc(-n3cnc4ccccc43)n2)C1 (centres unmarked) [compound 53, hydrochloride of 2-[3-(4-aminobutyl)piperidino]-4-(benzimidazol-1-yl)-6-morpholino-1,3,5-triazine]
41 | > 50 | CN(C)c1nc(N(C)C)nc(N(C)CO)n1 [compound C, hydroxymethylpentamethylmelamine, reference compound]
